Experimental data as given in ChEMBL document CHEMBL1201862, “PubChem BioAssay data set” (2004).
Calls of active or inactive are those of the source.

Experiments:
[1] = target: Intestinal-type alkaline phosphatase (Mus musculus, UniProt P24822); experiment: PubChem AID 488785; type: functional
[2] = target: T1, Alkaline phosphatase, tissue-nonspecific isozyme (Homo sapiens, UniProt P05186); experiment: TNAP enzyme inhibition by screening hits, dose response, selectivity assay for mouse IAP inhibitor project, biochemical, human TNAP, uHTS hits (AID 488906); type: functional
T1 sequence (P05186 whole entry): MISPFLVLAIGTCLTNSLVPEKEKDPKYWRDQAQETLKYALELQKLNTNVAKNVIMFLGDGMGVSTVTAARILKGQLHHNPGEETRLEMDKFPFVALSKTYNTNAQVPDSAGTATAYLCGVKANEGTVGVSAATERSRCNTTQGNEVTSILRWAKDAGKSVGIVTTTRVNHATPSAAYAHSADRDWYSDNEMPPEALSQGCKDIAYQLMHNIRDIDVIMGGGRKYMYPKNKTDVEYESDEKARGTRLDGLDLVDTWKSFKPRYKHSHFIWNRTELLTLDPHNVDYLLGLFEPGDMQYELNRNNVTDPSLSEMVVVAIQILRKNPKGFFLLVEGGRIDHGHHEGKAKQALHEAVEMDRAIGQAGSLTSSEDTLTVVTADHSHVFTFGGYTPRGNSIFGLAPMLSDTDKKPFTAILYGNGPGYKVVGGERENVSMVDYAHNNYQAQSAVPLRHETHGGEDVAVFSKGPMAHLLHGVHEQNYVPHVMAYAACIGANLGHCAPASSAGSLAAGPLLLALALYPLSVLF

[3] = target: T2, Intestinal-type alkaline phosphatase (Homo sapiens, UniProt P09923); experiment: inhibition of human intestinal alkaline phosphatase – biochemical, dose response (AID 488876); type: functional
SUMO E1/E2 = SUMO E1/E2 (Homo sapiens, UniProt P63279+Q9UBE0+Q9UBT2); experiment: SAR analysis of SUMOylation using HTRF in an in-Vitro dose response assay. [Related pubchem assays (depositor defined):AID2006, AID2011, AID2018, AID2069, AID2658]; type: functional
Large T antigen = Large T antigen (Simian virus 40, UniProt P03070); type: functional, Betapolyomavirus macacae;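 also: Confirmatory-stage PubChem screen for compounds that inhibit SV40 T antigen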
[4] = target: T2, Intestinal-type alkaline phosphatase; experiment: activation of human intestinal alkaline phosphatase – biochemical, dose response (AID 488873); type: functional
HeLa = experiment: viability loss in HeLa cells – cell-based, 24 h, cherry-picked samples, cytotoxicity control, dose response (AID 504726); type: functional; conditions: Homo sapiens;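 also: potency for cytotoxicity as loss of luminescence signal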
[5] = target: T1, Alkaline phosphatase, tissue-nonspecific isozyme; experiment: activation of tissue-nonspecific alkaline phosphatase – biochemical, TNAP isozyme, mouse IAP uHTS hits, selectivity assay for mouse IAP activator project, dose response (AID 488880); type: functional
ORF 73 = target: T3, ORF 73 (Human herpesvirus 8, UniProt O40947); experiment: KSHV LANA DNA-binding disruption – biochemical, fluorescence polarization, cherry-picked samples, dose response (AID 504725); design: species or system Human gammaherpesvirus 8;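 also: fluorescence polarization of a labeled DNA duplex reporting LANA DNA binding; potency is for inhibitors that block LANA binding to the DNA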
T3 sequence (O40947 whole entry): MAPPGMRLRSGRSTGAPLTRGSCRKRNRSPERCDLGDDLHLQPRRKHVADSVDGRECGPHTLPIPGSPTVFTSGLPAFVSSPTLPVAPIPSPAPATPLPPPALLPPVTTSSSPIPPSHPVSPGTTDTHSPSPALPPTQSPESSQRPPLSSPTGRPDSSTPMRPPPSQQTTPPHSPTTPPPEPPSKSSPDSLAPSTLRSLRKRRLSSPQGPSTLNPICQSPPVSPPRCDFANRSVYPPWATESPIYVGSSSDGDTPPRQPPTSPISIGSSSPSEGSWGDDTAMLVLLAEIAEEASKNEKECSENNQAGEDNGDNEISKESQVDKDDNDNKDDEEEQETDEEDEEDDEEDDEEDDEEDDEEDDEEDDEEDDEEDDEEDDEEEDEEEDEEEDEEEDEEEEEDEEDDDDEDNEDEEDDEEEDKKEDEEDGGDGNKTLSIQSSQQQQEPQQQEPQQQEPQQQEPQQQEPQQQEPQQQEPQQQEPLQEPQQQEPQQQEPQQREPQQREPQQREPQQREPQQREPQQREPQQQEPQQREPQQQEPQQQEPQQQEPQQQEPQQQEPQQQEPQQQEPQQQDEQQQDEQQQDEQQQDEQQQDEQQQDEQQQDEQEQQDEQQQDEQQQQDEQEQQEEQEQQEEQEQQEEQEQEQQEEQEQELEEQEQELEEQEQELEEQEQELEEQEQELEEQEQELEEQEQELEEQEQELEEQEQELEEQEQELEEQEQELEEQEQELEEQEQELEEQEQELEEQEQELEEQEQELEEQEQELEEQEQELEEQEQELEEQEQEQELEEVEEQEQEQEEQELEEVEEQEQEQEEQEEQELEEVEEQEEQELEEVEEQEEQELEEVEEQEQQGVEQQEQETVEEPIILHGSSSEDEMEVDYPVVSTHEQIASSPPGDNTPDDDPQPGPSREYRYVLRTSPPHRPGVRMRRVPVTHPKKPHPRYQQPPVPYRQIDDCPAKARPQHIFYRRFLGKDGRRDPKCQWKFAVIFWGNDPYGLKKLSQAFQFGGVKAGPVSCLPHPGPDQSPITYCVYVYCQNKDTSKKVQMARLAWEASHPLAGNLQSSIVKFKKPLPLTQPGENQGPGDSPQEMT

[6] = target: Lysine-specific demethylase 4A (Homo sapiens, UniProt O75164); experiment: inhibition of JMJD2A H3K9me3 demethylation – biochemical, DELFIA europium, cherry-picked samples, selectivity assay for GASC-1 inhibitor project, dose response (AID 488840)
[7] = target: T4, Sentrin-specific protease 8 (Homo sapiens, UniProt Q96LD8); type: functional
T4 sequence (Q96LD8 whole entry): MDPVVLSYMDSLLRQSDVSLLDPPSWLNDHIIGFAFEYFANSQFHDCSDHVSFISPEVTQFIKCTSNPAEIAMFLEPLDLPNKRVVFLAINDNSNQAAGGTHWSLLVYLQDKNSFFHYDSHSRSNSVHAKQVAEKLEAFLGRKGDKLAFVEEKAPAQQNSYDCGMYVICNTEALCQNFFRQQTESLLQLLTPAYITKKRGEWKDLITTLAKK

[8] = target: Lysine-specific demethylase 4C (Homo sapiens, UniProt Q9H3R0); experiment: inhibition of JMJD2C H3K9me3 demethylation – biochemical, DELFIA europium, cherry-picked samples, dose response (AID 488835); type: functional
[9] = target: T4, Sentrin-specific protease 8; type: functional; remark: listed apart in the source
[10] = target: T5, Tyrosine-protein phosphatase non-receptor type 22 (Homo sapiens, UniProt Q9Y2R2); experiment: SAR LYP1 Fluorescent Assay using OMFP substrate for In Vitro dose response studies - Set 2. [Related pubchem assays (depositor defined):AID1779, AID1784, AID2140, AID449726, AID488869]; type: functional
T5 sequence (Q9Y2R2 whole entry): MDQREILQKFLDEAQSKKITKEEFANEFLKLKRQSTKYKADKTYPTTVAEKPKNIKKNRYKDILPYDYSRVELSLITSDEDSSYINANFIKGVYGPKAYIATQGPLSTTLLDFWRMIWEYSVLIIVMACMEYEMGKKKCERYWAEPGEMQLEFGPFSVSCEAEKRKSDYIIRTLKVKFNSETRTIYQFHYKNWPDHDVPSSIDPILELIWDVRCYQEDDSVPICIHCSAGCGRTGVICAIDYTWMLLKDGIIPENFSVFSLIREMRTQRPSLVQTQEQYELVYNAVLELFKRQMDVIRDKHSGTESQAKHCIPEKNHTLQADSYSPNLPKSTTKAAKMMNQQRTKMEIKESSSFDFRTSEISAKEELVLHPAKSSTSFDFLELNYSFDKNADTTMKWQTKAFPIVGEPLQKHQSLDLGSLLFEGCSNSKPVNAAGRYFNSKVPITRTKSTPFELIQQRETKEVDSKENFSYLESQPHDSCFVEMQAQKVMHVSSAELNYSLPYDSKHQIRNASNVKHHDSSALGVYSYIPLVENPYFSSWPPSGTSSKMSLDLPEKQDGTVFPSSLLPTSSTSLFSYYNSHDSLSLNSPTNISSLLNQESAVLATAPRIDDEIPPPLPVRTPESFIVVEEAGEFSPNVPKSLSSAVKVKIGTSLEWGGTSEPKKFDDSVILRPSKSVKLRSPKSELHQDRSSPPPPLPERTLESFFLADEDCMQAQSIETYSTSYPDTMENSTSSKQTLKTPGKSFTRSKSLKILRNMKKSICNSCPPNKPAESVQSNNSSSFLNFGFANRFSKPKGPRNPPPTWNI

[11] = target: T5, Tyrosine-protein phosphatase non-receptor type 22; experiment: SAR LYP1 Fluorescent Assay using pCAP substrate for In Vitro dose response studies - Set 2. [Related pubchem assays (depositor defined):AID1779, AID1784, AID2135, AID449727]; type: functional
[12] = target: T5, Tyrosine-protein phosphatase non-receptor type 22; experiment: SAR LYP1 Fluorescent Assay using OMFP substrate for In Vitro dose response studies - Set 3. [Related pubchem assays (depositor defined):AID1779, AID1784, AID2140, AID2686]; type: functional
[13] = target: T6, Tyrosine-protein phosphatase non-receptor type 7 (Homo sapiens, UniProt P35236); experiment: inhibition of hematopoietic tyrosine phosphatase HePTP – biochemical, set 2, SAR follow-up (AID 449736); type: functional
T6 sequence (P35236 whole entry): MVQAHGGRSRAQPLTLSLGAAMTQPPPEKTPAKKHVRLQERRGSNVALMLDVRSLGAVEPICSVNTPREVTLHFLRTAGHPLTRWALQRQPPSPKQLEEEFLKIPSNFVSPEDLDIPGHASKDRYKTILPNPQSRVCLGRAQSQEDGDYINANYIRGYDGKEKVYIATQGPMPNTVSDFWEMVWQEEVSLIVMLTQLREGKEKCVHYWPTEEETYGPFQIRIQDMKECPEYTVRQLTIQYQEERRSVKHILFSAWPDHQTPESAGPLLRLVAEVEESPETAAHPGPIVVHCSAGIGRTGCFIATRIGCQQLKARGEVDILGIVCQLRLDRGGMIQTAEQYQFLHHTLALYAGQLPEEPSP

[14] = target: Tyrosine-protein phosphatase non-receptor type 12 (Homo sapiens, UniProt Q05209); experiment: SAR Selectivity Analysis of small molecule inhibitors of PEST using pCAP in a fluorescence assay. [Related pubchem assays (depositor defined):AID1779, AID1784, AID2135]; type: functional
[15] = target: T5, Tyrosine-protein phosphatase non-receptor type 22; experiment: inhibition of lymphoid tyrosine phosphatase LYP – biochemical, pCAP fluorogenic substrate, fluorescence, set 3, SAR follow-up (AID 449727); type: functional
[16] = target: T5, Tyrosine-protein phosphatase non-receptor type 22; type: functional
[17] = target: T6, Tyrosine-protein phosphatase non-receptor type 7; type: functional
[18] = NIH3T3 cell viability loss – ATP luminescence, mouse fibroblasts, counter-screen, dose response (AID 2010); type: functional, cell-based;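 also: cells exposed to compound for about 90 hours before reading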
[19] = Trypanosoma cruzi growth suppression in host cells – NIH3T3 host cells, beta-gal luminescence, confirmation (AID 2044); type: functional, cell-based;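 also: intracellular parasites grown in NIH/3T3 mouse fibroblasts as host cells; luminescent beta-galactosidase reporter signal from transgenic T. cruzi replicating inside host cells; inhibitors lower the luminescence signal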
[20] = target: T5, Tyrosine-protein phosphatase non-receptor type 22; type: functional; remark: listed apart in the source
[21] = target: T7, Delta-type opioid receptor (Homo sapiens, UniProt P41143); experiment: HTS Image-Based Screen for Antagonists of the DOR Receptor. [Related pubchem assays (depositor defined):AID1777, AID1785, AID1786, AID2133]; type: functional
[22] = target: T7, Delta-type opioid receptor; experiment: HTS Image-Based Screen for Agonists of the DOR Receptor. [Related pubchem assays (depositor defined):AID1777, AID1786, AID2133]; type: functional
[23] = target: T8, Kappa-type opioid receptor (Homo sapiens, UniProt P41145); type: functional
Beta-galactosidase = Beta-galactosidase (Escherichia coli, UniProt Q8VNN2); type: functional
[24] = target: T8, Kappa-type opioid receptor; type: functional; remark: listed apart in the source
Mu-type opioid receptor = Mu-type opioid receptor (Homo sapiens, UniProt P35372); experiment: HTS Image-Based Screen for Agonists of the MOR Receptor. [Related pubchem assays (depositor defined):AID1777, AID1785, AID1786, AID2133]; type: functional;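 also: imaging of beta-arrestin GFP recruitment into spots after receptor activation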
Mu-type opioid receptor, sequence (P35372 whole entry): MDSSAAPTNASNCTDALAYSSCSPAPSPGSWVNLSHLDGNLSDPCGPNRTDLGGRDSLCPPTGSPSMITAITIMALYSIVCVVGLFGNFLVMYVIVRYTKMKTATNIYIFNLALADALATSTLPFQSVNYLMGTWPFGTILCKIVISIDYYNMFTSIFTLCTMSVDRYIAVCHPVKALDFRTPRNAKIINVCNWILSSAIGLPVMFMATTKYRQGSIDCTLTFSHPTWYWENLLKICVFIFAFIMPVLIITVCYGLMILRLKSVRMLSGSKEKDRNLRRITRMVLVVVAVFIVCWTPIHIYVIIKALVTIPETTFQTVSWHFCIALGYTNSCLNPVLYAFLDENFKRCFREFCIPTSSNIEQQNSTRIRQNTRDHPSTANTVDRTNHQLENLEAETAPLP

Intestinal-type alkaline phosphatase (Mus musculus, UniProt P24822), sequence (P24822 whole entry): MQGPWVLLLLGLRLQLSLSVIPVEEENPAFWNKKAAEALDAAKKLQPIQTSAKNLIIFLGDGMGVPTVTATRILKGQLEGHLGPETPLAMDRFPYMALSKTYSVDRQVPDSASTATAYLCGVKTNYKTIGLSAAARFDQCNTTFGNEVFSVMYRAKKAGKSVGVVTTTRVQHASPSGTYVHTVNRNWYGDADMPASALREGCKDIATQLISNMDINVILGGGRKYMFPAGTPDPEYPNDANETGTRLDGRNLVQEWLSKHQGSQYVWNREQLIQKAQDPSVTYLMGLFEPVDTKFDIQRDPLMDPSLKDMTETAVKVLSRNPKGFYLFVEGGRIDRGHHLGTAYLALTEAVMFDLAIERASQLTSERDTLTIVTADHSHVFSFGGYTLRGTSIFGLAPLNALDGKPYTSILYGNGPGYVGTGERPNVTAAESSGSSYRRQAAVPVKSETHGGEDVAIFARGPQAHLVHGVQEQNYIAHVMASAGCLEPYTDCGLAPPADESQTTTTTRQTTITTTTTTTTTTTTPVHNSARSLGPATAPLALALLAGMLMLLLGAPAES
T2 sequence (P09923 whole entry): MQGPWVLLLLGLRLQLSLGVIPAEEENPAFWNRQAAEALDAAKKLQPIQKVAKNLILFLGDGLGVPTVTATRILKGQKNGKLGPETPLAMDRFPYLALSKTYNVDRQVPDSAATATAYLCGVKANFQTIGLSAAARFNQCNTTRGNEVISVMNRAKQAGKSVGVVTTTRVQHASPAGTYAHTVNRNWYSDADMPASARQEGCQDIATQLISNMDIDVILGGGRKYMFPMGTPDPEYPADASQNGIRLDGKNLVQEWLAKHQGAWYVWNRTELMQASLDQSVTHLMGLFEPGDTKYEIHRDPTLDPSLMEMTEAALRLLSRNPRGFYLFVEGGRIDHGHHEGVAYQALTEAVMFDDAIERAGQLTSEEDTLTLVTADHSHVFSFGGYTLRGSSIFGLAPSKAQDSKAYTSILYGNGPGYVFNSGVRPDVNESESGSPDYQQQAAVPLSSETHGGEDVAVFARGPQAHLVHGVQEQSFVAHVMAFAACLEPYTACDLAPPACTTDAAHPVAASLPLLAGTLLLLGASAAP
T7 sequence (P41143 whole entry): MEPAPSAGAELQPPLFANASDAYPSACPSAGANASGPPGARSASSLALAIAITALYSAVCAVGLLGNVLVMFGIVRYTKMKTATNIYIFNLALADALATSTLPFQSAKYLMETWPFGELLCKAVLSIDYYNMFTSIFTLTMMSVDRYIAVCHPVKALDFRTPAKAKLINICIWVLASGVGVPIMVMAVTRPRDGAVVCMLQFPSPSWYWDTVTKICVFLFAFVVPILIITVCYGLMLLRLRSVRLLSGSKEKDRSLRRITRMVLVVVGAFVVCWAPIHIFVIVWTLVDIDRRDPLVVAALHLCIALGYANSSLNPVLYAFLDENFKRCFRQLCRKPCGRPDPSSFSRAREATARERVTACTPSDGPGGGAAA
T8 sequence (P41145 whole entry): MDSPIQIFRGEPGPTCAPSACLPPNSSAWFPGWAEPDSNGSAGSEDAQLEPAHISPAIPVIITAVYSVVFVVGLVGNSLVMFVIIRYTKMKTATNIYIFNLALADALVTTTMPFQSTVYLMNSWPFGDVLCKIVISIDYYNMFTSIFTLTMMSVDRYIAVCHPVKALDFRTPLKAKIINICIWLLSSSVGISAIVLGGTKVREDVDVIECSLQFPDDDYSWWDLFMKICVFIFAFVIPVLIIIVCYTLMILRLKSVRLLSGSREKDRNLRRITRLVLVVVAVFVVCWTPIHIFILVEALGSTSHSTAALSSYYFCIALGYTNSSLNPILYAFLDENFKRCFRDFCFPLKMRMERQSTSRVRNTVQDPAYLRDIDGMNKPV
Beta-galactosidase, sequence (Q8VNN2 whole entry): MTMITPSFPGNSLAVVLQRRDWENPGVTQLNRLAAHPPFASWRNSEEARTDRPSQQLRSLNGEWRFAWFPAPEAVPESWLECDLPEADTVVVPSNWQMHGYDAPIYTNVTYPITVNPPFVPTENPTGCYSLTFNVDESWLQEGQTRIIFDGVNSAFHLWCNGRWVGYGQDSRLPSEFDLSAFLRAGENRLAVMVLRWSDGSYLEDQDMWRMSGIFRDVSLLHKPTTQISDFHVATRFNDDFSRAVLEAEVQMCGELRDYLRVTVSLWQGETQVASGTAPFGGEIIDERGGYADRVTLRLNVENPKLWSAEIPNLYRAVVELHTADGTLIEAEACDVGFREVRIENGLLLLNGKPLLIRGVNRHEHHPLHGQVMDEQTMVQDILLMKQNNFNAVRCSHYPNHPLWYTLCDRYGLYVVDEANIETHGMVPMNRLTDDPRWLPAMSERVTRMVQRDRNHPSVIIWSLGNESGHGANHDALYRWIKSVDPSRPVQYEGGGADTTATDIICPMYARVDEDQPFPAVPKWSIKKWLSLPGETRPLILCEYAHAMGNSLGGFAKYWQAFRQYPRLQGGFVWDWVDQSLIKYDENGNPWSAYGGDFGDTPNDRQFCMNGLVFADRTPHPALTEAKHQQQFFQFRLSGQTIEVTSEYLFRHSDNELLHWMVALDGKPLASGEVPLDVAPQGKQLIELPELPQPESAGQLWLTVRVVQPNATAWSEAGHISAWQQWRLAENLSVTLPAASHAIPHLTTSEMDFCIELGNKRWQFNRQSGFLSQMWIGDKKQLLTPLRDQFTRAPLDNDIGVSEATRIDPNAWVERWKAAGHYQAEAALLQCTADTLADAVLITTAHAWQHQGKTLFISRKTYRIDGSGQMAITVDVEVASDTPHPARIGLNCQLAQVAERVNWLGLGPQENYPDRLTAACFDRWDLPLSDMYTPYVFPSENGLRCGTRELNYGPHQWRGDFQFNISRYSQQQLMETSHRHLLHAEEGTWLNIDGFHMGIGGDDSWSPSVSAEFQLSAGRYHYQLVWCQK
Large T antigen, sequence (P03070 whole entry): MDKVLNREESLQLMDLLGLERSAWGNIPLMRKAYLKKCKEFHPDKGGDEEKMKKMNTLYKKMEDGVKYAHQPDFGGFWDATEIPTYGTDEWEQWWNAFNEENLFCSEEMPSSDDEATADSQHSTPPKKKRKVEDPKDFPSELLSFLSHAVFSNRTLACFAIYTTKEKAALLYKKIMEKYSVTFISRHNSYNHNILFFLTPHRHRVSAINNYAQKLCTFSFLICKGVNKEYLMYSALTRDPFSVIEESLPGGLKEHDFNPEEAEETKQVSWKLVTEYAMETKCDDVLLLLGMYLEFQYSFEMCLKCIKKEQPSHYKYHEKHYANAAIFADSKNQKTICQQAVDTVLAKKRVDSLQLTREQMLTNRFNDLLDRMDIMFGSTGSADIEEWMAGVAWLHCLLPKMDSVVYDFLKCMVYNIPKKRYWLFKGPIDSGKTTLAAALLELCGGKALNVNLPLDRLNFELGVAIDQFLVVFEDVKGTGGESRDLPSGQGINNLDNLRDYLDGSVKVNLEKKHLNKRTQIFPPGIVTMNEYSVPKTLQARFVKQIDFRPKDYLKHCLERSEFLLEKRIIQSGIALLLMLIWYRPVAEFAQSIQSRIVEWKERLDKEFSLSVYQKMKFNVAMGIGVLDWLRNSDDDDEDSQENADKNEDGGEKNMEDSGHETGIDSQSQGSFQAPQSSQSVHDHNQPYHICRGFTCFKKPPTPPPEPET
Lysine-specific demethylase 4C, sequence (Q9H3R0 whole entry): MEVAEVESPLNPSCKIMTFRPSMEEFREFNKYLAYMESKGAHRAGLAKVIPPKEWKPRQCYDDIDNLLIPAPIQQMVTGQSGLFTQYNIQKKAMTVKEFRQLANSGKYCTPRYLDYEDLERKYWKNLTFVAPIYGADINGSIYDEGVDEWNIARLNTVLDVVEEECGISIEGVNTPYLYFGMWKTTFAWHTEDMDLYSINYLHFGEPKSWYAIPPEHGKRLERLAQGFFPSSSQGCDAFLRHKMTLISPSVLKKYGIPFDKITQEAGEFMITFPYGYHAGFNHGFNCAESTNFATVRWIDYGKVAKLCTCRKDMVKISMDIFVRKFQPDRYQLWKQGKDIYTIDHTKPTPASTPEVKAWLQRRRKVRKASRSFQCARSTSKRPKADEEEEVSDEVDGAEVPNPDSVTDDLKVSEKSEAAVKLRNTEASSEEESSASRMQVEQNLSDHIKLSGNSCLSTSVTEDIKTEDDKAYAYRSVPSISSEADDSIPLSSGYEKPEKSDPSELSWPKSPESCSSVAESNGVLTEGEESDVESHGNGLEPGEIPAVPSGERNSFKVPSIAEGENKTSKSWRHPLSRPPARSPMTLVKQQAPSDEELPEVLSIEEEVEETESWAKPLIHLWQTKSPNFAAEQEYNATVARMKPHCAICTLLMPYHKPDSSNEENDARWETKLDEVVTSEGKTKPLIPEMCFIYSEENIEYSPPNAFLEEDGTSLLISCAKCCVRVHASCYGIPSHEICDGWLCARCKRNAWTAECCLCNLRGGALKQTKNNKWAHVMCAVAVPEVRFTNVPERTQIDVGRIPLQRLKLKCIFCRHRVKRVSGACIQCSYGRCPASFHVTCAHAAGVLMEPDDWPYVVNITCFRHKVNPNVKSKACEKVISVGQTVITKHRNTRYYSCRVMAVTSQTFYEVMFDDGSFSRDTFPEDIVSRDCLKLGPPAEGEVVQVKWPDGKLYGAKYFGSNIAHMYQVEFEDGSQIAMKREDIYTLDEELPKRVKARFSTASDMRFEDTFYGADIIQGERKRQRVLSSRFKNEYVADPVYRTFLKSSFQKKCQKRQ

O=C(O)CNS(=O)(=O)c1ccc2c3c(cccc13)C(=O)N2
IC50 [1]: 8.43 µM (active) | IC50 [2]: 85.4 µM (active) | IC50 [3]: > 100 µM (inactive)

Cc1ccc(O)c(N=Cc2cccs2)c1
IC50 (SUMO E1/E2): > 100 µM (inactive)

N=C1/C(=C\c2ccc(O)c(O)c2)C(=O)N=C2SC(CC(=O)N3CCCCC3)=NN12
IC50 (Large T antigen): 1.92 µM (active) | IC50 [1]: 6.98 µM (active) | EC50 [4]: 21.3 µM (active) | AC50 (HeLa): 267 µM (active) | EC50 [5]: 21.5 µM (active) | AC50 (ORF 73): 2.44 µM (active)

CN1C(=O)C(Cc2ccsc2)C(=O)N(C)C1=O
AC50 [6]: 8.7 µM (active) | IC50 [7]: 33.6 µM (active) | AC50 [8]: 3.65 µM (active) | IC50 [9]: 29.2 µM (active)

O=C(O)COc1ccc(C=NNC(=O)c2ccccc2Br)cc1
IC50 [10]: > 100 µM (inactive) | IC50 [11]: > 100 µM (inactive) | IC50 [12]: > 100 µM (inactive) | IC50 [13]: > 100 µM (inactive) | IC50 [14]: 66.3 µM (active) | IC50 [15]: > 100 µM (inactive)

CCCCOc1ccc(CN2CCCCC2)cc1
IC50 [16]: > 79.4 µM (inactive) | IC50 [17]: > 79.4 µM (inactive) | EC50 [18]: > 30 µM (not active) | EC50 [19]: 1.2 µM (active) | IC50 [20]: > 79.4 µM (inactive)

COc1ccc(-c2csc(Cc3nc(O)cs3)n2)cc1
IC50 [21]: > 32 µM (inactive) | EC50 [22]: > 32 µM (inactive) | IC50 [23]: > 32 µM | EC50 (Beta-galactosidase): > 31.5 µM (inactive) | IC50 [24]: 7.92 µM (active) | EC50 (Mu-type opioid receptor): > 32 µM (inactive)
